Results taken from patent publication US12582598B2, “Topical anti-inflammatory pharmaceutical composition comprising Zileuton” (QURIENT CO., LTD., priority 2019, dated 2026).
Values after ≈ are worked out from the molar mass of the structure shown.

Tests used:
[1] = tested on: phorbol ester induced ear edema in ICR mice; experiment: Phorbol ester induced ear edema test; assay type: in vivo
Procedure: Phorbol Ester Induced Ear Edema Test
The effect of Zileuton-containing formulations on phorbol ester induced ear edema in ICR mice was evaluated. One hundred and twenty (120) female ICR mice were assigned to eleven (11) groups by randomization with BioBook software to achieve similar mean weight and right ear thickness baseline among groups. Mice were terminated by 95% CO2 asphyxiation and then cervical dislocation.
Totally nine (9) Zileuton-containing formulations which are SO13, SO17, WB6, Gel-10, Gel-11, LO3, LO13, SPC19 and Zileuton 1.0% cream were selected for the tests Dexamethasone were used for the reference and Acetone was treated to the vehicle group.
Mice were anesthetized with 2-5 isoflurane. The mice were sensitized by painting 5 μg of phorbol ester dissolved in 0.02 mL of Acetone on ear inside and out. […] Six (6) hours after the modeling, the both side's ear thickness were measured after anesthetized by isoflurane (2-3%), respectively. Ear swelling response was determined by ear thickness measured with a micrometer before challenge and 6 hours after challenge and reported as the mean change in ear thickness (ΔT±S.E.M.). Percent suppression of ear swelling response was calculated as % suppression=[1−(ΔT of sensitized mice exposed to experimental treatment/ΔT of sensitized mice exposed to vehicle treatment)]×100.

[2] = Approximate solubility of Zileuton in various solvents/vehicles; assay type: physicochemical
Procedure: Solubility of Zileuton in Various Solvents
Approximately solubility of the Zileuton was measured in different vehicles. Semi-soild and waxy solid excipients were melted and tested at 50° C. or 70° C.

SMILES: C[C@@H]1C[C@H]2[C@@H]3CCC4=CC(=O)C=C[C@]4(C)[C@@]3(F)[C@@H](O)C[C@]2(C)[C@@]1(O)C(=O)CO [Dex, Dexamethasone]
- ear swelling (ear swelling response) ([1]; ICR mice, phorbol ester 5 μg/ear, result in words): significant decrease in ear swelling
- Suppression Rate: % suppression Vs G1-right ear ([1]; female ICR mice, phorbol ester (PMA) 5 μg/ear, topical treatment, ear thickness 6 hours after challenge, vs vehicle (Acetone) group): 27.14%

SMILES: CC(c1cc2ccccc2s1)N(O)C(N)=O (racemic) [Zileuton, (±)-1-(1-(benzo[b]thiophen-2-yl)ethyl)-1-hydroxyurea]
- solubility ([2]; 25 mM sodium citrate buffer, 25 °C, pH 4, aqueous buffer, vehicle 25 mM sodium citrate buffer solution (pH = 4)): < 5 mg/mL
- solubility ([2]; 20% 2-Hydroxypropyl-β-cyclodextrin in water, 25 °C, aqueous with cosolvent or surfactant or cyclodextrin, vehicle 20% 2-Hydroxypropyl-β-cyclodextrin in water): 10 to 16.7 mg/mL (≈ 42.3 to 70.7 mM)
- solubility ([2]; 20% Poloxamer 188 in water, 25 °C, aqueous with cosolvent or surfactant or cyclodextrin, vehicle 20% Poloxamer 188 water): < 5 mg/mL
- solubility ([2]; 20% Sulfobutylether-β-cyclodextrin in water, 25 °C, aqueous with cosolvent or surfactant or cyclodextrin, vehicle 20% Sulfobutylether-β-cyclodextrin in water): 10 to 16.7 mg/mL (≈ 42.3 to 70.7 mM)
- solubility ([2]; 25 °C, pH 4, aqueous with cosolvent or surfactant or cyclodextrin, vehicle 20% 2-Hydroxypropyl-β-cyclodextrin in pH 4 sodium citrate buffer): 10 to 16.7 mg/mL (≈ 42.3 to 70.7 mM)
- solubility ([2]; 25 °C, pH 4, aqueous with cosolvent or surfactant or cyclodextrin, vehicle 20% Sulfobutylether-β-cyclodextrin in pH 4 sodium citrate buffer): 5 to 10 mg/mL (≈ 21.2 to 42.3 mM)
- solubility ([2]; Beeswax polyethylene glycol-8, 70 °C, oil or lipid, vehicle Beeswax polyethylene glycol-8, 70° C.): 15.7 to 25 mg/mL (≈ 66.4 to 106 mM)
- solubility ([2]; Caprylic glycerides, 50 °C, oil or lipid, vehicle Caprylic glycerides): 18.2 to 28.6 mg/mL (≈ 77 to 121 mM)
- solubility ([2]; Caprylocaproyl polyoxyl glycerides, 25 °C, oil or lipid, vehicle Caprylocaproyl polyoxyl glycerides): 40 to 66.7 mg/mL (≈ 169 to 282 mM)
- solubility ([2]; Castor oil, 25 °C, oil or lipid, vehicle Castor oil): < 5 mg/mL
- solubility ([2]; Corn oil, 25 °C, oil or lipid, vehicle Corn oil): < 5 mg/mL
- solubility ([2]; Diethylene glycol monoethyl ether, 25 °C, organic solvent or mixture, vehicle Diethylene glycol monoethyl ether): > 200 mg/mL
- solubility ([2]; Dimethyl acetamide, 25 °C, organic solvent or mixture, vehicle Dimethyl acetamide): 66.7 to 100 mg/mL (≈ 282 to 423 mM)
- solubility ([2]; Dimethyl formamide, 25 °C, organic solvent or mixture, vehicle Dimethyl formamide): 100 to 200 mg/mL (≈ 423 to 846 mM)
- solubility ([2]; Dimethyl sulfoxide, 25 °C, organic solvent or mixture, vehicle Dimethyl sulfoxide): 100 to 200 mg/mL (≈ 423 to 846 mM)
- solubility ([2]; Ethanol, 25 °C, organic solvent or mixture, vehicle Ethanol): 40 to 50 mg/mL (≈ 169 to 212 mM)
- solubility ([2]; Ethyl oleate, 25 °C, oil or lipid, vehicle Ethyl oleate): < 5 mg/mL
- solubility ([2]; Ethylene glycol palmitostearate, 70 °C, oil or lipid, vehicle Ethylene glycol palmitostearate): 50 to 100 mg/mL (≈ 212 to 423 mM)
- solubility ([2]; Glycerin, 25 °C, organic solvent or mixture, vehicle Glycerin): < 10 mg/mL
- solubility ([2]; Glyceryl mono and di stearate, 70 °C, oil or lipid, vehicle Glyceryl mono and di stearate): 25 to 50 mg/mL (≈ 106 to 212 mM)
- solubility ([2]; Glyceryl monocaprate type I, 25 °C, oil or lipid, vehicle Glyceryl monocaprate type I): 8.3 to 12.5 mg/mL (≈ 35.1 to 52.9 mM)
- solubility ([2]; Glyceryl monolinoleate, 25 °C, oil or lipid, vehicle Glyceryl monolinoleate): < 5 mg/mL
- solubility ([2]; Glyceryl monostearate, 70 °C, oil or lipid, vehicle Glyceryl monostearate): 25 to 50 mg/mL (≈ 106 to 212 mM)
- solubility ([2]; Hexylene glycol, 25 °C, organic solvent or mixture, vehicle Hexylene glycol): 25 to 50 mg/mL (≈ 106 to 212 mM)
- solubility ([2]; Isopropyl myristate, 25 °C, oil or lipid, vehicle Isopropyl myristate): < 5 mg/mL
- solubility ([2]; Lanolin, 70 °C, oil or lipid, vehicle Lanolin): < 5 mg/mL
- solubility ([2]; Lauroyl polyoxyl-6 glycerides, 50 °C, oil or lipid, vehicle Lauroyl polyoxyl-6 glycerides): < 10 mg/mL
- solubility ([2]; Lauroyl polyoxyl-32 glycerides, 50 °C, oil or lipid, vehicle Lauroyl polyoxyl-32 glycerides): < 10 mg/mL
- solubility ([2]; Linoleoyl polyoxyl-6 glycerides, 25 °C, oil or lipid, vehicle Linoleoyl polyoxyl-6 glycerides): < 5 mg/mL
- solubility ([2]; Liquid paraffin, 25 °C, oil or lipid, vehicle Liquid paraffin): < 5 mg/mL
- solubility ([2]; Medium chain triglycerides, 25 °C, oil or lipid, vehicle Medium chain triglycerides): < 5 mg/mL
- solubility ([2]; N-methyl-2-pyrrolidone, 25 °C, organic solvent or mixture, vehicle N-methyl-2-pyrrolidone): > 200 mg/mL
- solubility ([2]; Oleic acid, 25 °C, oil or lipid, vehicle Oleic acid): < 5 mg/mL
- solubility ([2]; Oleoyl polyoxyl-6 glycerides, 25 °C, oil or lipid, vehicle Oleoyl polyoxyl-6 glycerides): < 5 mg/mL
- solubility ([2]; Olive oil, 25 °C, oil or lipid, vehicle Olive oil): < 5 mg/mL
- solubility ([2]; Paraffin, 70 °C, oil or lipid, vehicle Paraffin): < 5 mg/mL
- solubility ([2]; Peceol, 25 °C, oil or lipid, vehicle Peceol): < 5 mg/mL
- solubility ([2]; Poly-oxyethylene esters of 12-hydroxystearic acid, 50 °C, organic solvent or mixture, vehicle Poly-oxyethylene esters of 12-hydroxystearic acid): 40 to 100 mg/mL (≈ 169 to 423 mM)
- solubility ([2]; Polyethylene glyco-40 hydrogenated castor oil, 50 °C, organic solvent or mixture, vehicle Polyethylene glyco-40 hydrogenated castor oil): 22.2 to 28.6 mg/mL (≈ 93.9 to 121 mM)
- solubility ([2]; Polyethylene glycol 200, 25 °C, organic solvent or mixture, vehicle Polyethylene glycol 200, 25° C.): 50 to 66.7 mg/mL (≈ 212 to 282 mM)
- solubility ([2]; Polyethylene glycol 300, 25 °C, organic solvent or mixture, vehicle Polyethylene glycol 300, 25° C.): 40 to 66.7 mg/mL (≈ 169 to 282 mM)
- solubility ([2]; Polyethylene glycol 400, 25 °C, organic solvent or mixture, vehicle Polyethylene glycol 400, 25° C.): 40 to 66.7 mg/mL (≈ 169 to 282 mM)
- solubility ([2]; Polyethylene glycol 1500, 70 °C, organic solvent or mixture, vehicle Polyethylene glycol 1500, 70° C.): 50 to 100 mg/mL (≈ 212 to 423 mM)
- solubility ([2]; Polyethylene glycol 3350, 70 °C, organic solvent or mixture, vehicle Polyethylene glycol 3350, 70° C.): 25 to 50 mg/mL (≈ 106 to 212 mM)
- solubility ([2]; Polyethylene glycol 6000, 70 °C, organic solvent or mixture, vehicle Polyethylene glycol 6000, 70° C.): 25 to 50 mg/mL (≈ 106 to 212 mM)
- solubility ([2]; Polyethylene glycol octadecyl ether, 25 °C, organic solvent or mixture, vehicle Polyethylene glycol octadecyl ether): 10 to 11.1 mg/mL (≈ 42.3 to 47 mM)
- solubility ([2]; Polyethylene glycol sorbitan monolaurate, 25 °C, organic solvent or mixture, vehicle Polyethylene glycol sorbitan monolaurate): 12.5 to 14.3 mg/mL (≈ 52.9 to 60.5 mM)
- solubility ([2]; Polyoxy ethylene sorbitan monooleate, 25 °C, organic solvent or mixture, vehicle Polyoxy ethylene sorbitan monooleate): 12.5 to 14.3 mg/mL (≈ 52.9 to 60.5 mM)
- solubility ([2]; Polyoxy ethylene sorbitan monostearate, 25 °C, organic solvent or mixture, vehicle Polyoxy ethylene sorbitan monostearate): 33.3 to 50 mg/mL (≈ 141 to 212 mM)
- solubility ([2]; Polyoxyl 35 hydrogenated castor oil, 25 °C, organic solvent or mixture, vehicle Polyoxyl 35 hydrogenated castor oil): 12.5 to 14.3 mg/mL (≈ 52.9 to 60.5 mM)
- solubility ([2]; Propylene glycol dicaprylate, 25 °C, oil or lipid, vehicle Propylene glycol dicaprylate): < 5 mg/mL
- solubility ([2]; Propylene glycol monocaprylate type II, 25 °C, oil or lipid, vehicle Propylene glycol monocaprylate type II): 12.5 to 25 mg/mL (≈ 52.9 to 106 mM)
- solubility ([2]; Propylene glycol monolaurate, 25 °C, oil or lipid, vehicle Propylene glycol monolaurate): 8.3 to 12.5 mg/mL (≈ 35.1 to 52.9 mM)
- solubility ([2]; Propylene glycol, 25 °C, organic solvent or mixture, vehicle Propylene glycol): 40 to 66.7 mg/mL (≈ 169 to 282 mM)
- solubility ([2]; Sorbitan monolaurate, 25 °C, oil or lipid, vehicle Sorbitan monolaurate): < 5 mg/mL
- solubility ([2]; Sorbitane monooleate, 25 °C, oil or lipid, vehicle Sorbitane monooleate): < 5 mg/mL
- solubility ([2]; Triethanolamine, 25 °C, organic solvent or mixture, vehicle Triethanolamine): < 10 mg/mL
- solubility ([2]; Water, 25 °C, vehicle Water): < 5 mg/mL
- solubility ([2]; White vaseline, 70 °C, oil or lipid, vehicle White vaseline): < 5 mg/mL
- solubility ([2]; White wax, 70 °C, oil or lipid, vehicle White wax): < 5 mg/mL
- solubility ([2]; d-a-tocopheryl polyethylene glycol 1000 succinate, 50 °C, oil or lipid, vehicle d-a-tocopheryl polyethylene glycol 1000 succinate): < 10 mg/mL
